In patent US11359011B2, “Treatment and prevention of cardiovascular disease” (Edifice Health, Inc., priority 2019, dated 2022):

B1: MIG: recombinant mouse MIG (R&D systems, catalog number 492-MM); monokine induced by gamma interferon, CXC chemokine (protein, UniProt P18340 22-126, looked up)
C-X-C motif chemokine 9: TLVIRNARCSCISTSRGTIHYKSLKDLKQFAPSPNCNKTEIIATLKNGDQTCLDPDSANVKKLMKEWEKKISQKKKQKRGKKHQKNMKNRKPKTPQSRRRSRKTT

Tests used:
estrogen levels = details: while raising testosterone levels; cited from earlier work
Mouse thoracic aortas = assay: Acetylcholine relaxation of mouse thoracic aortic rings on an isometric wire myograph after exposure to MIG; details: mouse thoracic aortic sections incubated with different concentrations of recombinant mouse MIG, pre-contracted with U46619; FIG. 6
Procedure: Mouse thoracic aortas were carefully dissected, and vessels were cut into small rings and mounted on an isometric wire myograph chambers (Danish Myo Technology) and subjected to a normalization protocol. Following normalization, the vessels were incubated with either PBS or different concentrations of recombinant mouse MIG (R&D systems, catalog number 492-MM). A concentration-dependent contraction curve was created by accumulative application of the prostaglandin agonist U46619. Subsequently, concentration-dependent relaxation curves of Acetylcholine were conducted on these vessels and percent relaxation calculated for each dose.

| Molecule | reduction of estrogen levels (estrogen levels) [%] | effect on vasorelaxation (percent relaxation to Acetylcholine) (Mouse thoracic aortas) |
| --- | --- | --- |
| N#Cc1ccc(C(c2ccc(C#N)cc2)n2cncn2)cc1 [Letrozole] | 98 |  |
| B1 |  | impaired vascular reactivity with increasing concentrations of MIG |
